Measurements as given in the supplement of paper PMC10307832.

Assays:
Experiment in all cases: relative viability (nuclei count vs DMSO), 5 days (fraction); higher = more cells survive
[1] = compound: C1CC(C2=C(C1)C3=C(N2)C=CC(=C3)Cl)C(=O)N [Selisistat] + CC(C)C[C@H](NC(=O)[C@H](Cc1ccccc1)NC(=O)c1cnccn1)B(O)O [Bortezomib] (partner 0.002 µM)
How it was run: (§1)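 Relative viability divides the nuclei count in treated wells by that in vehicle wells. Lung cancer cell lines were seeded in 1536-well plates, dosed by pin tool the next day, and fixed and stained after 5 days in one step with final 0.05% Triton X-100, 1% formaldehyde and 1 ug/ml Hoechst. Dosing was a single drug or a fixed anchor-drug dose plus five library-drug doses (not always all listed) in √10 steps, and values are medians of duplicate plates imaged at 4×.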

[2] = compound: C1CC(C2=C(C1)C3=C(N2)C=CC(=C3)Cl)C(=O)N [Selisistat] + O=C(c1cc(Cc2n[nH]c(=O)c3ccccc23)ccc1F)N1CCN(C(=O)C2CC2)CC1 [Olaparib] (partner 8 µM)
How it was run: as §1

[3] = compound: C1CC(C2=C(C1)C3=C(N2)C=CC(=C3)Cl)C(=O)N [Selisistat] + CS(=O)(=O)N1CCN(Cc2cc3nc(-c4cccc5[nH]ncc45)nc(N4CCOCC4)c3s2)CC1 [Pictilisib] (partner 1 µM)
How it was run: as §1

[4] = compound: c1ccc2c(CCNc3ccc(Nc4ccncc4)cc3)c[nH]c2c1 [Serdemetan] + Cc1nc(Nc2ncc(C(=O)Nc3c(C)cccc3Cl)s2)cc(N2CCN(CCO)CC2)n1 [Dasatinib] (partner 0.075 µM)
How it was run: as §1

Cell Line	relative viability ([1]; first compound 0.4 µM)	relative viability ([1]; first compound 1.265 µM)	relative viability ([1]; first compound 4 µM)	relative viability ([1]; first compound 12.65 µM)	relative viability ([1]; first compound 40 µM)	relative viability ([2]; first compound 0.4 µM)	relative viability ([2]; first compound 1.265 µM)	relative viability ([2]; first compound 4 µM)	relative viability ([2]; first compound 12.65 µM)	relative viability ([2]; first compound 40 µM)	relative viability ([3]; first compound 0.4 µM)	relative viability ([3]; first compound 1.265 µM)	relative viability ([3]; first compound 4 µM)	relative viability ([3]; first compound 12.65 µM)	relative viability ([3]; first compound 40 µM)	relative viability ([4]; first compound 0.04 µM)	relative viability ([4]; first compound 0.1265 µM)	relative viability ([4]; first compound 0.4 µM)	relative viability ([4]; first compound 1.265 µM)	relative viability ([4]; first compound 4 µM)
201T	1.13	1.08	1.1	1.11	1.08	0.85	0.841	0.827	0.823	0.843	0.69	0.648	0.58	0.673	0.685	0.568	0.508	0.546	0.449	0.464
A549						0.439	0.299	0.267	0.324	0.314	0.605	0.478	0.525	0.55	0.449					
A-427	1.02	0.981	1.01	1.02	0.952	0.853	0.779		0.829	0.692	0.625	0.622	0.327	0.656	0.73	0.666	0.653	0.655	0.64	0.603
ABC-1	0.317	0.327	0.312	0.383	0.267	0.715	0.686		0.876	0.69	0.782	0.895	0.728	0.758	0.773	0.541	0.575	0.585	0.402	0.429
BEN	0.888	0.984	0.492	0.73	0.609	1.08	1.03	1.06	1.06	1.04	0.581	0.578	0.459	0.548	0.521	0.302	0.3	0.312		0.356
CAL-12T	0.992	1.12		0.768	0.983	0.765	0.675	0.689	0.782	0.769	0.384	0.388		0.6	0.314	0.392	0.516	0.429	0.456	0.292
COR-L23	0.981	1.02	1.09	0.829	0.863	0.409	0.331	0.406	0.367	0.335	0.821	0.78	0.899	0.701	0.689	0.46	0.468	0.41	0.379	0.452
COR-L 105	0.772	0.868	0.493	0.725	0.72	0.703	0.67	0.815	0.659	0.576	0.432	0.412	0.322	0.405	0.418	0.326	0.351	0.306	0.319	0.337
Calu-6	0.998	0.961	0.992	0.902	0.932	0.561	0.572	0.634	0.552	0.617	0.867	0.886	0.895	0.872	0.925					
ChaGo-K-1	0.972	1.03		0.917	0.821	0.439	0.409	0.438	0.351	0.388	0.804	0.844		0.675	0.646	0.587	0.562	0.572	0.249	0.24
EBC-1	0.611	0.551	0.673	0.494	0.486	0.763	0.732	0.711	0.728	0.66	0.373	0.286	0.46	0.454	0.389					
EKVX	1	1	0.671	0.84	1.04	0.872	0.886	0.752	0.869	0.818	0.451	0.432	0.39	0.442	0.53	0.523	0.645		0.355	0.371
EMC-BAC-2	1.08	1.05	1.01	1.05	1.04	0.577	0.504	0.676	0.371	0.405	0.551	0.53	0.477	0.577	0.524	0.304	0.358	0.344	0.268	0.293
EPLC-272H	0.933	0.985		0.859	0.893	0.888	0.787	0.626	0.749	0.657	0.261	0.337		0.287	0.332	0.42	0.397	0.389	0.29	0.418
H3255	0.811	0.61	0.536	0.796	0.883	0.505	0.538	0.571	0.549	0.539	0.508	0.41	0.481	0.494	0.532	0.422	0.384	0.258	0.323	0.431
HARA	1.12	1.19	1.14	1.15	1.06	0.695	0.651		0.785	0.85	0.492	0.366	0.348	0.307	0.401	0.336	0.28	0.235	0.185	0.178
HCC-15	1.09	1.03		1.04	1.29	0.822	0.712	0.855	0.675	0.743	0.813	0.775		0.814	0.793	0.676	0.608	0.562	0.541	0.49
HCC-44	0.857	0.908	1.02	0.926	0.952	0.992	1.01	1.01	1.02	1.18	0.633	0.551	0.595	0.599	0.436					
